Experimental data: ChEMBL document CHEMBL1201862, “PubChem BioAssay data set” (2004)
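48-hour exposure; five concentrations; linearly interpolated endpoints. GI50 is the concentration that inhibits growth by half.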 Activity calls are given as the source filed them. Rule as the data show it: active = GI50 up to about 1.1 µM and inactive = higher.

Legend:
Assay in all cases: NCI anticancer screen, dose series, 48 h
U-251 = tested on: U-251
EKVX = tested on: EKVX
PC-3 = tested on: PC-3
OVCAR-8 = tested on: OVCAR-8
SF-295 = tested on: SF-295
T47D = tested on: T47D
SW-620 = tested on: SW-620
HCT-116 = tested on: HCT-116
HL-60 = tested on: HL-60
NCI-H226 = tested on: NCI-H226
IGROV-1 = tested on: IGROV-1
CCRF-CEM = tested on: CCRF-CEM
DU-145 = tested on: DU-145
OVCAR-5 = tested on: OVCAR-5
MDA-MB-435 = tested on: MDA-MB-435
NCI-H522 = tested on: NCI-H522
LOX IMVI = tested on: LOX IMVI
NCI/ADR-RES = tested on: NCI/ADR-RES
SNB-75 = tested on: SNB-75

| Compound | GI50 (U-251) | GI50 (EKVX) | GI50 (PC-3) | GI50 (OVCAR-8) | GI50 (SF-295) | GI50 (T47D) | GI50 (SW-620) | GI50 (HCT-116) | GI50 (HL-60) | GI50 (NCI-H226) | GI50 (IGROV-1) | GI50 (CCRF-CEM) | GI50 (DU-145) | GI50 (OVCAR-5) | GI50 (MDA-MB-435) | GI50 (NCI-H522) | GI50 (LOX IMVI) | GI50 (NCI/ADR-RES) | GI50 (SNB-75) |
| --- | --- | --- | --- | --- | --- | --- | --- | --- | --- | --- | --- | --- | --- | --- | --- | --- | --- | --- | --- |
| CCOC(=O)c1c(NC(=O)c2ccc(Br)cc2)sc2c1CCCC2 | > 100 µM (inactive) | > 100 µM (inactive) | > 100 µM (inactive) | > 100 µM (inactive) | > 100 µM (inactive) | > 100 µM (inactive) | > 100 µM (inactive) | > 100 µM (inactive) | > 100 µM (inactive) | > 100 µM (inactive) | 97.1 µM (inactive) | > 100 µM (inactive) | > 100 µM (inactive) | > 100 µM (inactive) | > 100 µM (inactive) |  |  |  |  |
| CCCCc1ccc(Nc2nc(O)c3ncn(COCCO)c3n2)cc1 | 57.4 µM (inactive) | > 100 µM (inactive) |  | > 100 µM (inactive) | > 100 µM (inactive) | 73.1 µM (inactive) | > 100 µM (inactive) | > 100 µM (inactive) | > 100 µM (inactive) | > 100 µM (inactive) | > 100 µM (inactive) | > 100 µM (inactive) | > 100 µM (inactive) | > 100 µM (inactive) | > 100 µM (inactive) | > 100 µM (inactive) | > 100 µM (inactive) | > 100 µM (inactive) | > 100 µM (inactive) |
| CCC1(O)CC2CC(=O)OC2C1O (stereo not drawn) | > 100 µM (inactive) | > 100 µM (inactive) | > 100 µM (inactive) | > 100 µM (inactive) | > 100 µM (inactive) | > 100 µM (inactive) | > 100 µM (inactive) |  |  | > 100 µM (inactive) | > 100 µM (inactive) | 0.423 µM (active) | > 100 µM (inactive) | > 100 µM (inactive) | > 100 µM (inactive) | > 100 µM (inactive) | > 100 µM (inactive) | > 100 µM (inactive) | > 100 µM (inactive) |
| Oc1ccc(Cl)cc1C1=NC(NCN2CCN(CNC3=NC(c4ccccc4)CC(c4cc(Cl)ccc4O)=N3)CC2)=NC(c2ccccc2)C1 (stereo not drawn) | 35.4 µM (inactive) | 48.3 µM (inactive) | 39.7 µM (inactive) | 31.8 µM (inactive) | 32.3 µM (inactive) |  | 33.1 µM (inactive) | 20.4 µM (inactive) | 28.4 µM (inactive) | 53.8 µM (inactive) | 34.4 µM (inactive) | 21.5 µM (inactive) | 41.8 µM (inactive) | 50.9 µM (inactive) | 48.6 µM (inactive) |  | 40.6 µM (inactive) | 38.4 µM (inactive) | 35.6 µM (inactive) |
| O=C1C(NCCc2cc(Cl)c(O)c(Cl)c2)=CC(=O)c2[nH]cnc21 | 39.7 µM (inactive) | 32.1 µM (inactive) | 45.9 µM (inactive) | 32.2 µM (inactive) | 18 µM (inactive) | 21.7 µM (inactive) | 47.8 µM (inactive) | 27.1 µM (inactive) | 17.4 µM (inactive) |  | 18.5 µM (inactive) |  |  | 88.7 µM (inactive) | 16.7 µM (inactive) | 12.8 µM (inactive) | 35.2 µM (inactive) | > 100 µM (inactive) |  |
| Cc1ccc(S(=O)(=O)c2ccsc2NC(=O)C(F)(F)F)cc1 | 70.8 µM (inactive) | 46.6 µM (inactive) | 37.6 µM (inactive) | 31.8 µM (inactive) | 37.8 µM (inactive) | 39.3 µM (inactive) | 57.3 µM (inactive) | 28.6 µM (inactive) |  | 39.7 µM (inactive) | 62.8 µM (inactive) |  | 42.6 µM (inactive) | 50.1 µM (inactive) | 44.5 µM (inactive) | 24.4 µM (inactive) | 28.2 µM (inactive) | 31.7 µM (inactive) | 24.9 µM (inactive) |
| O=C(N/N=C/c1ccc(Cl)cc1)c1ccccc1Nc1ccccc1C(=O)N/N=C/c1ccc(Cl)cc1 | > 100 µM (inactive) | > 100 µM (inactive) | > 100 µM (inactive) | > 100 µM (inactive) | 54 µM (inactive) | > 100 µM (inactive) | > 100 µM (inactive) | > 100 µM (inactive) |  | > 100 µM (inactive) | > 100 µM (inactive) | > 100 µM (inactive) | > 100 µM (inactive) | 38.6 µM (inactive) | > 100 µM (inactive) |  | > 100 µM (inactive) | > 100 µM (inactive) | > 100 µM (inactive) |
| CCN(CC)C(=S)Nc1ccc(-c2cc3ccc(O)cc3oc2=O)cc1 | 11.8 µM (inactive) | 32 µM (inactive) | 23.4 µM (inactive) | 26.9 µM (inactive) | 36.5 µM (inactive) |  | 34 µM (inactive) | 26.1 µM (inactive) | 3.76 µM (inactive) | 25.6 µM (inactive) | 30.6 µM (inactive) | 16.4 µM (inactive) | 29.8 µM (inactive) | 26.2 µM (inactive) | 28.6 µM (inactive) | 17 µM (inactive) | 25.9 µM (inactive) | 20.6 µM (inactive) | 16.4 µM (inactive) |
| N#Cc1nc(CSCc2ccccc2)oc1N | > 100 µM (inactive) |  | > 100 µM (inactive) | > 100 µM (inactive) | > 100 µM (inactive) | > 100 µM (inactive) | > 100 µM (inactive) | > 100 µM (inactive) |  | > 100 µM (inactive) | > 100 µM (inactive) | 19.8 µM (inactive) | > 100 µM (inactive) | > 100 µM (inactive) | > 100 µM (inactive) | 42.6 µM (inactive) |  | > 100 µM (inactive) |  |
| CC1OC(OC2C(O)COC(OC3C(C)OC(OC4C(OC(=O)[C@]56CCC(C)(C)C[C@@H]5C5=CCC7[C@@]8(C)C[C@H](O)[C@H](OC9OC(CO)C(O)C(O)C9O)[C@@](C)(CO)[C@@H]8CC[C@@]7(C)[C@]5(C)CC6)OCC(O)C4O)C(O)C3O)C2O)C(O)C(O)C1O (stereo partly drawn) | 23.9 µM (inactive) | 16.5 µM (inactive) | 18.2 µM (inactive) | 18.8 µM (inactive) | 23.9 µM (inactive) | 22 µM (inactive) | 20.1 µM (inactive) | 25.8 µM (inactive) |  | 25.1 µM (inactive) |  | 20.6 µM (inactive) | 19.1 µM (inactive) | 17.1 µM (inactive) | 23.4 µM (inactive) | 46.6 µM (inactive) | 21.3 µM (inactive) | 21.6 µM (inactive) | 20 µM (inactive) |
| N#CC(Cc1ccccc1)N(CCC1=CCCCC1)Cc1ccccc1 (stereo not drawn) | 81.7 µM (inactive) | 56.5 µM (inactive) | 51.1 µM (inactive) | 72.1 µM (inactive) | 61.5 µM (inactive) | 47.3 µM (inactive) | 41.1 µM (inactive) | 36.8 µM (inactive) |  |  | 81.1 µM (inactive) |  | > 100 µM (inactive) | 97.7 µM (inactive) | 22 µM (inactive) | 25.3 µM (inactive) |  | 59.6 µM (inactive) | 61 µM (inactive) |
| CCOC(=O)C1=CCOc2cc(N(C)C)ccc21 | > 100 µM (inactive) | > 100 µM (inactive) | > 100 µM (inactive) | > 100 µM (inactive) | > 100 µM (inactive) |  | > 100 µM (inactive) | > 100 µM (inactive) | 31.8 µM (inactive) | > 100 µM (inactive) | > 100 µM (inactive) | 21.6 µM (inactive) | > 100 µM (inactive) |  | > 100 µM (inactive) | 45.3 µM (inactive) | > 100 µM (inactive) | > 100 µM (inactive) | 43.4 µM (inactive) |
| N#CCCC(CC#N)N1CCN(C(CC#N)CCC#N)CC1 (stereo not drawn) | > 100 µM (inactive) | > 100 µM (inactive) | > 100 µM (inactive) | > 100 µM (inactive) | > 100 µM (inactive) |  | > 100 µM (inactive) | > 100 µM (inactive) | > 100 µM (inactive) | > 100 µM (inactive) | > 100 µM (inactive) | > 100 µM (inactive) | > 100 µM (inactive) | > 100 µM (inactive) |  | > 100 µM (inactive) |  | > 100 µM (inactive) | > 100 µM (inactive) |
| CCC(C)(C)c1ccc(OCCCCNC(=O)c2ccc3ccccc3c2O)c(C(C)(C)CC)c1 | 43 µM (inactive) | 21.8 µM (inactive) | 6.08 µM (inactive) | 27.5 µM (inactive) | 48.3 µM (inactive) | 31 µM (inactive) | 18.3 µM (inactive) | 17.6 µM (inactive) | 29.1 µM (inactive) | 12.6 µM (inactive) | 31.2 µM (inactive) | 9.68 µM (inactive) | 54.7 µM (inactive) | 69.5 µM (inactive) |  | 14.6 µM (inactive) |  | 25.4 µM (inactive) | 29.8 µM (inactive) |
| CCOC(OCC)[C@H](N)[C@@H](O)[C@@H](O)[C@H]1COC(C)(C)O1 | > 100 µM (inactive) | > 100 µM (inactive) | > 100 µM (inactive) | > 100 µM (inactive) | > 100 µM (inactive) |  | > 100 µM (inactive) | > 100 µM (inactive) |  | > 100 µM (inactive) | > 100 µM (inactive) | > 100 µM (inactive) | > 100 µM (inactive) | > 100 µM (inactive) | > 100 µM (inactive) |  | > 100 µM (inactive) | > 100 µM (inactive) | > 100 µM (inactive) |
| CC1=CC(=O)/C(=C/NC(=O)NN)C(=O)O1 | > 100 µM (inactive) | 34.1 µM (inactive) | > 100 µM (inactive) | > 100 µM (inactive) | > 100 µM (inactive) |  | > 100 µM (inactive) | > 100 µM (inactive) |  |  | 58.5 µM (inactive) | > 100 µM (inactive) | > 100 µM (inactive) | > 100 µM (inactive) | > 100 µM (inactive) | > 100 µM (inactive) | > 100 µM (inactive) | 94.2 µM (inactive) | 45.4 µM (inactive) |
